# Assay results from ChEMBL document CHEMBL1201862, “PubChem BioAssay data set” (2004).
# Activity calls are given as the source filed them.
# Legend:
# Coagulation factor XII = molecular target: T1, Coagulation factor XII (Homo sapiens, UniProt P00748); type: functional;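 further: activated factor XIIa alpha cleaving a fluorogenic AMC peptide substrate; inhibitor potency from loss of enzyme activity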
# T1 sequence (P00748 whole entry): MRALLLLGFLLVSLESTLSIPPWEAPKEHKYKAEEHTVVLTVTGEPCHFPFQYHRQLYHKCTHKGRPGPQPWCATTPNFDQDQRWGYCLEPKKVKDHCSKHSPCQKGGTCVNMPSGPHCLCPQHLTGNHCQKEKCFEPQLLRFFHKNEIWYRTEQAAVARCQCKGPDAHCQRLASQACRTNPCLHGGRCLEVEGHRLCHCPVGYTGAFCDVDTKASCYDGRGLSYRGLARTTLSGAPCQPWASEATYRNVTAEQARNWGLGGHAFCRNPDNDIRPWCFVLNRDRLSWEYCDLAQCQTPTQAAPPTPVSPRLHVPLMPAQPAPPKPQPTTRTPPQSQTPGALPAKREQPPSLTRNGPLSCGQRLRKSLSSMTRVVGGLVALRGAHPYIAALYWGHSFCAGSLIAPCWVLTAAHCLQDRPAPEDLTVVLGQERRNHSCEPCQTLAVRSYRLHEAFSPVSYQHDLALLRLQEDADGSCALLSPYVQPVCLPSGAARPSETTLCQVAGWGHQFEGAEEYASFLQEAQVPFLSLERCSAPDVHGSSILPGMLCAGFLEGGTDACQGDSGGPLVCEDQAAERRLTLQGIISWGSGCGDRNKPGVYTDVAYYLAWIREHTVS
# [1] = molecular target: T2, Alkaline phosphatase, tissue-nonspecific isozyme (Homo sapiens, UniProt P05186); experiment: potency against alkaline phosphatase TNAP – biochemical, luminescent, dose response, SAR follow-up (AID 1056)
# T2 sequence (P05186 whole entry): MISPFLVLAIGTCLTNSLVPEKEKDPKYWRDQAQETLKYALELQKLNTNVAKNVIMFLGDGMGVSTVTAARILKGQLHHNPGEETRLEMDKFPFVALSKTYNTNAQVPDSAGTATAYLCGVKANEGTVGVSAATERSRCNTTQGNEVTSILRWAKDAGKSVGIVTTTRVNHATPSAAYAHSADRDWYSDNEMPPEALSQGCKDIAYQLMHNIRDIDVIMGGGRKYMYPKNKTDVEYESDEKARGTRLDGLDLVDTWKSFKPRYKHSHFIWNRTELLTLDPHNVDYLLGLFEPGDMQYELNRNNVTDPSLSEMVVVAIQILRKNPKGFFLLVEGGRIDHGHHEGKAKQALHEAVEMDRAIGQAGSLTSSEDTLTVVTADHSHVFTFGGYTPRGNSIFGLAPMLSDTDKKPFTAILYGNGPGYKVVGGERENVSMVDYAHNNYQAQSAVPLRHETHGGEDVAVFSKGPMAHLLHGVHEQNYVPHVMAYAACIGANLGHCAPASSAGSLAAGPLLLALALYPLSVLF
# [2] = molecular target: Glyceraldehyde-3-phosphate dehydrogenase (Homo sapiens, UniProt P04406)
# P388 = experiment: cells; type: functional; conditions: Mus musculus
# P388/ADR = experiment: cells; type: functional; conditions: Mus musculus
# SN12K1 = experiment: cells; type: functional; conditions: Homo sapiens
# fMet-Leu-Phe receptor = molecular target: T3, fMet-Leu-Phe receptor (Homo sapiens, UniProt P21462); experiment: formyl peptide receptor binders – dose response (AID 519); type: functional
# T3 sequence (P21462 whole entry): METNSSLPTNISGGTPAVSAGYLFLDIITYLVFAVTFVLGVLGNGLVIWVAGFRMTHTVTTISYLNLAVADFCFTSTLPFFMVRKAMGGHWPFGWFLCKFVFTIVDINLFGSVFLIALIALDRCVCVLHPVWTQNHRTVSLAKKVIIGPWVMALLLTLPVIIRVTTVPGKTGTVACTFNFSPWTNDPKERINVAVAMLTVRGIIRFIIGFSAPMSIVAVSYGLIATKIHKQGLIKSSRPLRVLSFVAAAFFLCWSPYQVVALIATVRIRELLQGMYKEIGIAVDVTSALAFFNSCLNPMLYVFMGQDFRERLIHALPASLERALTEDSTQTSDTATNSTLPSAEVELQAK
# [3] = molecular target: Disintegrin and metalloproteinase domain-containing protein 17 (Homo sapiens, UniProt P78536); experiment: inhibition of ADAM17 substrate cleavage – biochemical, quenched FRET substrate, counter-screen for ADAM10 exosite inhibitor project, dose response (AID 743253)
# Streptokinase A = molecular target: T4, Streptokinase A (Streptococcus pyogenes serotype M1, UniProt P10520); experiment: viability-normalized secreted streptokinase activity reduction – plasminogen activation absorbance, OD405, dose response (AID 1914); type: functional, Streptococcus pyogenes M1 GAS;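 further: secreted streptokinase activity via plasminogen activation per viability signal from cell pellet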
# T4 sequence (P10520 whole entry): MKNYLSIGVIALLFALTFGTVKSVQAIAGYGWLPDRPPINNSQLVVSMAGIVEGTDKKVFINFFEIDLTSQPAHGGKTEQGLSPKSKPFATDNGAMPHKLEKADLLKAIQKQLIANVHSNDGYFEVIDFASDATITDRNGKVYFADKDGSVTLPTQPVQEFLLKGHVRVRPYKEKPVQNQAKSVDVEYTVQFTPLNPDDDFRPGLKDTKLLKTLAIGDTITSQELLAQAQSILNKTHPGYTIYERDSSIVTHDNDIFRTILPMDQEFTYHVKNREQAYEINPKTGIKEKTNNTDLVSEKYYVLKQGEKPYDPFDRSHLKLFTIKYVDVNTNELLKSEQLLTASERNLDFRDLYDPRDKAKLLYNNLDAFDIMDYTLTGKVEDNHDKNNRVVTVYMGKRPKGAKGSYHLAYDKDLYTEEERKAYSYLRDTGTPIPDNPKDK
# Cytochrome P450 1A2 = molecular target: T5, Cytochrome P450 1A2 (Homo sapiens, UniProt P05177);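 further: PubChem cytochrome P450 panel assay, CYP1A2 panel member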
# T5 sequence (P05177 whole entry): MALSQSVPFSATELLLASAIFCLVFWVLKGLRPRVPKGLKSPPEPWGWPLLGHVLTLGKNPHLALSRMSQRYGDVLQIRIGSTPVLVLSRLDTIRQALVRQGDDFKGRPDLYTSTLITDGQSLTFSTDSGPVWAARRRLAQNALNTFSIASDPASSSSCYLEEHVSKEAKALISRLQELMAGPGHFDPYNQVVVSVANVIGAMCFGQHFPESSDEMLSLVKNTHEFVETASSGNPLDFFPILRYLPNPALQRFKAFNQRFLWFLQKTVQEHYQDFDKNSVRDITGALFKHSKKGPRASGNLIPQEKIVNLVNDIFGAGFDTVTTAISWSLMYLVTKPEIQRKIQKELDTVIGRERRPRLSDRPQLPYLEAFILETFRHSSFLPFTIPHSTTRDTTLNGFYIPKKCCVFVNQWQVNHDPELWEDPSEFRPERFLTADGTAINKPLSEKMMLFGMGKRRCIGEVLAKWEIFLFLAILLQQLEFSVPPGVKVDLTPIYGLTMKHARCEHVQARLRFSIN
# [4] = molecular target: T6, Ubiquitin-conjugating enzyme E2 N (Homo sapiens, UniProt P61088); type: functional;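 further: Dose-response confirmation in a TR-FRET assay detecting UBC13-driven polyubiquitin chain formation, inhibition measured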
# T6 sequence (P61088 whole entry): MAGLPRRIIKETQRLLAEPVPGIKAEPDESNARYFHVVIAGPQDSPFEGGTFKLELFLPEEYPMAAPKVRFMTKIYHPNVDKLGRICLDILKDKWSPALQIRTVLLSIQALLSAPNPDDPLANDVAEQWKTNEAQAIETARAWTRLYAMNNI
# [5] = molecular target: T7, Microphthalmia-associated transcription factor (Homo sapiens, UniProt O75030); experiment: reducers of TRPM1 reporter luminescence, concentration series – cell-based, SK-MEL-5, cherry-picked, set 3, MITF inhibitor project, dose response (AID 493073); type: functional;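 further: SK-MEL-5 melanoma cells with luciferase driven by the MITF target TRPM1 promoter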
# T7 sequence (O75030 whole entry): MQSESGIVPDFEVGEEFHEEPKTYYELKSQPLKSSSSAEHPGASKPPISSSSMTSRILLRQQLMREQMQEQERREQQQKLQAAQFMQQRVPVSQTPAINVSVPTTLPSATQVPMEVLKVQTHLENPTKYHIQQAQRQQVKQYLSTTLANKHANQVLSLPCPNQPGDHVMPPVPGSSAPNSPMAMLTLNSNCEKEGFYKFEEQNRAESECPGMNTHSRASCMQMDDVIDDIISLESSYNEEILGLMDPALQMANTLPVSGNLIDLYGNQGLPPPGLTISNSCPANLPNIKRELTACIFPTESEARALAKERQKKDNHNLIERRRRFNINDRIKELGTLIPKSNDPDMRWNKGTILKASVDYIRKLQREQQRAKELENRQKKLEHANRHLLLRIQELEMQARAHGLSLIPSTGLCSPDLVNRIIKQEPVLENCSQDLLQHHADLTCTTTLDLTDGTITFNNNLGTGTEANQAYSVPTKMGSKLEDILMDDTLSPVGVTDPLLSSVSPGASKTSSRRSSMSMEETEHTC
# [6] = molecular target: T8, Heat shock factor protein 1 (Mus musculus, UniProt P38532); experiment: decrease of HSF1-responsive luciferase luminescence – cell-based, NIH3T3, dose retest, confirmation (AID 2382); type: functional;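 further: NIH3T3 fibroblasts with HSF1-driven luciferase reporter stressed by proteasome inhibitor MG132; luminescence from HSF1-driven luciferase expression after 8 hours of MG132 stress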
# T8 sequence (P38532 whole entry): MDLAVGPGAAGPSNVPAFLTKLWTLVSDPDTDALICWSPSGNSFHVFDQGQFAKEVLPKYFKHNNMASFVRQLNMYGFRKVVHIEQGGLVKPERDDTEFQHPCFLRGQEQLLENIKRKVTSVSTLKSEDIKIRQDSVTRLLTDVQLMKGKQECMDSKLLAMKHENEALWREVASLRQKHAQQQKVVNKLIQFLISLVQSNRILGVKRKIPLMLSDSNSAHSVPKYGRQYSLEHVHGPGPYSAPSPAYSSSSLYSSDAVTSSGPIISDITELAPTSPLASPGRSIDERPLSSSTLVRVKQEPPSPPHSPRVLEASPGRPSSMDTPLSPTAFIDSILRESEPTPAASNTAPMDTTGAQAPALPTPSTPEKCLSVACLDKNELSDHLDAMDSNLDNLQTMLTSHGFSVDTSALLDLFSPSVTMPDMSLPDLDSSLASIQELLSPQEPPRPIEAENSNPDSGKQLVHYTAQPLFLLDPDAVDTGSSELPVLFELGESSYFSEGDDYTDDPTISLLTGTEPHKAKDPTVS
# [7] = system: Streptococcus sp. 'group A'; experiment: Streptococcus pyogenes SK(-)GAS viability under kanamycin – luminescence, BacTiterGlo, confirmation, counter-screen for streptokinase expression inhibitor project, dose response (AID 1900); type: functional, organism-based
# Streptococcus = experiment: GAS UMAA2166 growth inhibition – luminescence, BacTiterGlo, counter-screen for streptokinase expression inhibitor project, dose response (AID 1915); type: functional, organism-based;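 further: potency for reduction of bacterial viability or growth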
# Sequence of Glyceraldehyde-3-phosphate dehydrogenase (P04406 whole entry): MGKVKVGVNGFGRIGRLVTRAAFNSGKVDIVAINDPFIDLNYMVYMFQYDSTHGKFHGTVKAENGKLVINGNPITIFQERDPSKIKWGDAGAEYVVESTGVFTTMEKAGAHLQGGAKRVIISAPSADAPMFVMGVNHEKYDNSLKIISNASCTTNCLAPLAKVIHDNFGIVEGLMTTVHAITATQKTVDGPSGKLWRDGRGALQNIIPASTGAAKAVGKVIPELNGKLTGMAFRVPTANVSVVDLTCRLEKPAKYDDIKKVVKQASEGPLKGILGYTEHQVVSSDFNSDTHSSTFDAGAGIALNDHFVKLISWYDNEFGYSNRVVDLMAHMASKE
# Sequence of Disintegrin and metalloproteinase domain-containing protein 17 (P78536 whole entry, the tested form may be a part): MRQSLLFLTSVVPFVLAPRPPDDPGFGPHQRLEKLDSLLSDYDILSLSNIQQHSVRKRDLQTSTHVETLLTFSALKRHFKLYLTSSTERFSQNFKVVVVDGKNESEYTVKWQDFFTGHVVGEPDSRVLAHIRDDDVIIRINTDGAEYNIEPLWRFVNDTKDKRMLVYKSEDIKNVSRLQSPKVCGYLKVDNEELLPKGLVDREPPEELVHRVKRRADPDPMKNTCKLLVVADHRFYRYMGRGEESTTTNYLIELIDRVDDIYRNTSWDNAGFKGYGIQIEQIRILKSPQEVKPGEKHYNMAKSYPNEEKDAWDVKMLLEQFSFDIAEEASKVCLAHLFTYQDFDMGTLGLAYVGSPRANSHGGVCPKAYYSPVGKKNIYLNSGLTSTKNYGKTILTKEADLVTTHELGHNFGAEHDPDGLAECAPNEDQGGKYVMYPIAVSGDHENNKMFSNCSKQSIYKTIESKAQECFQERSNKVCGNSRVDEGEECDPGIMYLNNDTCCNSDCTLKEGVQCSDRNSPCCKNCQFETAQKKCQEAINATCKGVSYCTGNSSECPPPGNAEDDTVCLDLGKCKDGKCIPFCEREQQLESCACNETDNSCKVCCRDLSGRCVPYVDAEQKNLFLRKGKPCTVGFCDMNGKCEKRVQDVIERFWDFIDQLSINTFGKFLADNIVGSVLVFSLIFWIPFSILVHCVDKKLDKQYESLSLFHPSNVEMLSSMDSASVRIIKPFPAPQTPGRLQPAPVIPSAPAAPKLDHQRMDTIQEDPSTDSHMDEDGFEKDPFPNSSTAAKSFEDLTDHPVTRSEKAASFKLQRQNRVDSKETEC
structure (smiles),measurement,setting,value
CCC(CC)c1nnc(NC(=O)Oc2ccccc2)s1,IC50,Coagulation factor XII,> 50 µM (inactive)
c1ccc(Cn2cnc(-c3cccnc3)c2)cc1,IC50,[1],> 100 µM (inactive)
same,IC50,[2],> 100 µM (not active)
C#CCNC(=O)CCC(N)C(=O)O (centres undefined),GI50,P388,> 100 µM (inactive)
same,GI50,P388/ADR,> 100 µM (inactive)
same,GI50,SN12K1,> 100 µM (inactive)
CCc1nnc(NC(=O)CSc2nnc(-c3cc4ccccc4cc3O)n2CC)s1,Ki,fMet-Leu-Phe receptor,61.1 µM (inactive)
CC(=O)c1ccc(N2CCC(c3cc(-c4ccc(Cl)cc4Cl)n[nH]3)CC2)c([N+](=O)[O-])c1,IC50,[3],> 69.5 µM (inactive)
same,EC50,Streptokinase A,> 150 µM (not active)
same,AC50,Cytochrome P450 1A2,14.1 µM (inconclusive)
CCN(CC)CCNC(=O)c1c(C)n(-c2ccccc2)c2cc(Br)c(OC)cc12,IC50,[4],> 20 µM (inactive)
same,AC50,[5],12.9 µM (active)
CN(N=O)C(=O)N[C@H]1C(O)O[C@H](CO)[C@@H](O)[C@@H]1O (some centres undefined),GI50,P388,451 µM (inactive)
same,GI50,P388/ADR,484 µM (inactive)
same,GI50,SN12K1,532 µM (inactive)
Cc1ccc(S(=O)(=O)Nc2cnc3ccccc3c2)cc1,IC50,[1],44.9 µM (active)
same,IC50,[2],> 100 µM (not active)
Cc1nn2c(CN(C(=O)CN3CCOCC3)c3ccccc3)nnc2c2ccccc12,EC50,[6],> 195 µM (not active)
same,IC50,Coagulation factor XII,> 50 µM (inactive)
COc1ccc2c(c1OC)C(=O)N(c1nnc(SC)[nH]1)C2=O,IC50,[1],34.1 µM (active)
same,IC50,[2],> 100 µM (not active)
COc1ccc(N(CC(=O)Nc2ccc3c(c2)OCCO3)S(=O)(=O)c2c(C)nn(C)c2C)cc1,IC50,Coagulation factor XII,> 50 µM (inactive)
CCN(CC)C(=O)c1cc(-c2cc(F)c(Cl)cc2Cl)n[nH]1,IC50,[1],3.63 µM (active)
same,IC50,[2],> 10 µM (inconclusive)
O=C(Nc1ccc(N2CCCC2)c(S(=O)(=O)Nc2cccc(C(F)(F)F)c2)c1)c1cccs1,IC50,[3],> 69.5 µM (inactive)
same,EC50,[7],3.38 µM (active)
same,EC50,Streptococcus,10.5 µM (active)
same,EC50,Streptokinase A,> 150 µM (not active)
CC1[C@@]2(O[C@@H]3C=C4C5CCC6Cc7nc8c(nc7C[C@@]6(C)C5C[C@H](O)[C@@]4(C)[C@]13O)CC1CCc3c(cc4c5c3C(O)C[C@H]5[C@@H](C)C3(O4)OC(C)(C)CC3O)[C@]1(C)C8)O[C@@](C)(CO)C[C@@H]2O (some centres undefined),GI50,P388,0.103 µM (active)
same,GI50,P388/ADR,2.69 µM (inactive)
same,GI50,SN12K1,0.0404 µM (active)
CC1CCN(CC2C(=O)O[C@@H]3C[C@@]4(C)CCC[C@H](C)C4=C[C@H]23)CC(C)(C)C1 (some centres undefined),AC50,[5],16.1 µM (active)
CC(CN1C(C)CCCC1C)OC(=O)c1ccc(Cl)cc1Cl (centres undefined),IC50,Coagulation factor XII,> 50 µM (inactive)
Nc1ccnn1Cc1cccs1,IC50,Coagulation factor XII,> 50 µM (inactive)
C[C@H](N)C(=O)N[C@@H]1[C@H]2C(=C(O)C[C@@H](O)[C@@H]2O)C(=O)O[C@@H]1C,GI50,P388,> 53.2 µM (inactive)
same,GI50,P388/ADR,> 73.3 µM (inactive)
same,GI50,SN12K1,> 100 µM (inactive)
COC1=C(C)C(=O)C2=C(C1=O)[C@@H]1[C@@H]3Cc4c(OC(=O)CO)c(C)c(OC)c(O)c4[C@H](CNC(=O)C(C)=O)N3[C@@H](C#N)[C@H](C2)N1C,GI50,P388,< 0.01 µM (active)
same,GI50,P388/ADR,0.125 µM (active)
same,GI50,SN12K1,0.0358 µM (active)
Nc1ccn(C2OC(CO)C(O)C2O)c(=O)c1 (centres undefined),GI50,P388,57 µM (inactive)
same,GI50,SN12K1,344 µM (inactive)
O=C(O)CC(Cc1ccc(Br)cc1)C(=O)O (centres undefined),EC50,[6],> 195 µM (not active)
same,IC50,Coagulation factor XII,> 50 µM (inactive)
